These compounds were tested against recombinant full length HPK-1 enzyme (Homo sapiens (Human), UniProt Q92918) (assay: HPK-1 biochemical enzyme assay (ADP-Glo kinase inhibition)). Conditions: recombinant full length HPK-1 6.8 nM, 10 μM ATP, 12.5 μM MBP, 30 mins at 25° C.
How it was run: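 ADP-Glo readout of ADP formed after a 30 min, 25° C. reaction of 6.8 nM full-length HPK-1 with swine myelin basic protein (12.5 μM) and ATP (10 μM) in Tris pH 7.4 buffer with MgCl2, DTT and BSA. Ten compound concentrations tested; percent inhibition set against vehicle (0%) and no-enzyme (100%) controls gave IC50.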

Sequence of recombinant full length HPK-1 enzyme (Q92918 whole entry, species assumed): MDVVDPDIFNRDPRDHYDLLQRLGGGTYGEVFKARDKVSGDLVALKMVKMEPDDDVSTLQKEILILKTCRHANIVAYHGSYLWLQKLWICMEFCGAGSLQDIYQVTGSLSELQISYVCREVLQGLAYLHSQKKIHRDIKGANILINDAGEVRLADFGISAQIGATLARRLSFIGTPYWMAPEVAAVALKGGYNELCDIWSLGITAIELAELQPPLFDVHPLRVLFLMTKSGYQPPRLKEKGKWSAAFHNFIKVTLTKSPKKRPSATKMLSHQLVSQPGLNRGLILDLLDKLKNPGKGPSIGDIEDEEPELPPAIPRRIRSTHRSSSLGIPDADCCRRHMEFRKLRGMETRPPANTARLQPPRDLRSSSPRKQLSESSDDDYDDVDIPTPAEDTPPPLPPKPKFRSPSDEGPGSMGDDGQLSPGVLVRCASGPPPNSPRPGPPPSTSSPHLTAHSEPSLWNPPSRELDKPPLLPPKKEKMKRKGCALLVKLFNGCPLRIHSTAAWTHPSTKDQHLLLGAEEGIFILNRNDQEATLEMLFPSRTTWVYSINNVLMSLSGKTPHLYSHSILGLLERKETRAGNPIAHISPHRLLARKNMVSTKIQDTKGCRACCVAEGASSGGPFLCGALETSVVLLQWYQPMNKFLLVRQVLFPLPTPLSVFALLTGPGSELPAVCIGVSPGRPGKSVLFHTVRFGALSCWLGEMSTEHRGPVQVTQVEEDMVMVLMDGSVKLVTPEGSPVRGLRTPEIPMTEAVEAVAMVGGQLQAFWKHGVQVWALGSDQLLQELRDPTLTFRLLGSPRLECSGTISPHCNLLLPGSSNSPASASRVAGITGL

SMILES | IC50
Cc1c(Nc2cc[nH]c(=O)c2C(=O)Nc2ccc(N3CCN(C(=O)N4CC5(COC5)C4)CC3)cc2)cnc2c1NCCO2 [Example 321, N-(4-(4-(2-oxa-6-azaspiro[3.3]heptane-6-carbonyl)piperazin-1-yl)phenyl)-4-((8-methyl-2,3-dihydro-1H-pyrido[2,3-b][1,4]oxazin-7-yl)amino)-2-oxo-1,2-dihydropyridine-3-carboxamide] | 0.01 to 0.1 µM
Cc1c(Nc2cc[nH]c(=O)c2C(=O)Nc2ccc(N3CCN(C(=O)c4ccn(C)n4)CC3)cc2)cnc2c1NCCO2 [Example 322, N-(4-(4-(1-methyl-1H-pyrazole-3-carbonyl)piperazin-1-yl)phenyl)-4-((8-methyl-2,3-dihydro-1H-pyrido[2,3-b][1,4]oxazin-7-yl)amino)-2-oxo-1,2-dihydropyridine-3-carboxamide] | 0.01 to 0.1 µM
Cc1c(Nc2cc[nH]c(=O)c2C(=O)Nc2ccc(N3CCN4CCOC[C@H]4C3)cc2)cnc2c1NCCO2 [Example 323, (R)-N-(4-(hexahydropyrazino[2,1-c][1,4]oxazin-8(1H)-yl)phenyl)-4-((8-methyl-2,3-dihydro-1H-pyrido[2,3-b][1,4]oxazin-7-yl)amino)-2-oxo-1,2-dihydropyridine-3-carboxamide] | 0.01 to 0.1 µM
Cc1c(Nc2cc[nH]c(=O)c2C(=O)Nc2ccc(C3CCCCC3)cc2)cnc2c1NCCO2 [Example 330, N-(4-cyclohexylphenyl)-4-((8-methyl-2,3-dihydro-1H-pyrido[2,3-b][1,4]oxazin-7-yl)amino)-2-oxo-1,2-dihydropyridine-3-carboxamide] | 0.1 to 1 µM
Cc1c(Nc2cc[nH]c(=O)c2C(=O)Nc2ccc(N3CCN(C(=O)C4CC4)CC3)cc2)cnc2c1NCCO2 [Example 332, N-(4-(4-(cyclopropanecarbonyl)piperazin-1-yl)phenyl)-4-((8-methyl-2,3-dihydro-1H-pyrido[2,3-b][1,4]oxazin-7-yl)amino)-2-oxo-1,2-dihydropyridine-3-carboxamide] | ≤ 0.01 µM
CCC(C)C(=O)N1CCN(c2ccc(NC(=O)c3c(Nc4cnc5c(c4C)NCCO5)cc[nH]c3=O)cc2)CC1 (stereo not shown) [Example 333, 4-((8-methyl-2,3-dihydro-1H-pyrido[2,3-b][1,4]oxazin-7-yl)amino)-N-(4-(4-(2-methylbutanoyl)piperazin-1-yl)phenyl)-2-oxo-1,2-dihydropyridine-3-carboxamide] | ≤ 0.01 µM
Cc1c(Nc2cc[nH]c(=O)c2C(=O)Nc2ccc(N3CCN(C(=O)C4C(C)(C)C4(C)C)CC3)cc2)cnc2c1NCCO2 [Example 334, 4-((8-methyl-2,3-dihydro-1H-pyrido[2,3-b][1,4]oxazin-7-yl)amino)-2-oxo-N-(4-(4-(2,2,3,3-tetramethylcyclopropane-1-carbonyl)piperazin-1-yl)phenyl)-1,2-dihydropyridine-3-carboxamide] | ≤ 0.01 µM
Cc1c(Nc2cc[nH]c(=O)c2C(=O)Nc2ccc(N3CCN(C(=O)C(C)C)CC3)cc2)cnc2c1NCC(C)O2 (stereo not shown) [Example 335, 4-((3,8-dimethyl-2,3-dihydro-1H-pyrido[2,3-b][1,4]oxazin-7-yl)amino)-N-(4-(4-isobutyrylpiperazin-1-yl)phenyl)-2-oxo-1,2-dihydropyridine-3-carboxamide] | 0.01 to 0.1 µM
Cc1c(Nc2cc[nH]c(=O)c2C(=O)Nc2ccc(N3CCN(c4ccn(C)n4)CC3)cc2)cnc2c1NCCO2 [Example 336, N-(4-(4-(1-methyl-1H-pyrazol-3-yl)piperazin-1-yl)phenyl)-4-((8-methyl-2,3-dihydro-1H-pyrido[2,3-b][1,4]oxazin-7-yl)amino)-2-oxo-1,2-dihydropyridine-3-carboxamide] | ≤ 0.01 µM
Cc1ncccc1N1CCN(c2ccc(NC(=O)c3c(Nc4cnc5c(c4C)NCCO5)cc[nH]c3=O)cc2)CC1 [Example 337, 4-((8-methyl-2,3-dihydro-1H-pyrido[2,3-b][1,4]oxazin-7-yl)amino)-N-(4-(4-(2-methylpyridin-3-yl)piperazin-1-yl)phenyl)-2-oxo-1,2-dihydropyridine-3-carboxamide] | ≤ 0.01 µM
Cc1c(Nc2cc[nH]c(=O)c2C(=O)Nc2ccc(N3CCN(c4cncnc4)CC3)cc2)cnc2c1NCCO2 [Example 338, 4-((8-methyl-2,3-dihydro-1H-pyrido[2,3-b][1,4]oxazin-7-yl)amino)-2-oxo-N-(4-(4-(pyrimidin-5-yl)piperazin-1-yl)phenyl)-1,2-dihydropyridine-3-carboxamide] | 0.01 to 0.1 µM
Cc1c(Nc2cc[nH]c(=O)c2C(=O)Nc2ccc(N3CCN(c4ncn(C)n4)CC3)cc2)cnc2c1NCCO2 [Example 339, N-(4-(4-(1-methyl-1H-1,2,4-triazol-3-yl)piperazin-1-yl)phenyl)-4-((8-methyl-2,3-dihydro-1H-pyrido[2,3-b][1,4]oxazin-7-yl)amino)-2-oxo-1,2-dihydropyridine-3-carboxamide] | ≤ 0.01 µM
Cc1cc(N2CCN(c3ccc(NC(=O)c4c(Nc5cnc6c(c5C)NCCO6)cc[nH]c4=O)cc3)CC2)ccn1 [Example 340, 4-((8-methyl-2,3-dihydro-1H-pyrido[2,3-b][1,4]oxazin-7-yl)amino)-N-(4-(4-(2-methylpyridin-4-yl)piperazin-1-yl)phenyl)-2-oxo-1,2-dihydropyridine-3-carboxamide] | ≤ 0.01 µM
Cc1c(Nc2cc[nH]c(=O)c2C(=O)Nc2ccc(N3CCN(C(=O)C(C)(C)C)CC3)cc2)cnc2c1NCCO2 [Example 341, 4-((8-methyl-2,3-dihydro-1H-pyrido[2,3-b][1,4]oxazin-7-yl)amino)-2-oxo-N-(4-(4-pivaloylpiperazin-1-yl)phenyl)-1,2-dihydropyridine-3-carboxamide] | ≤ 0.01 µM
Cc1c(Nc2cc[nH]c(=O)c2C(=O)Nc2ccc(N3CCN(C(=O)C(C)(C)F)CC3)cc2)cnc2c1NCCO2 [Example 342, N-(4-(4-(2-fluoro-2-methylpropanoyl)piperazin-1-yl)phenyl)-4-((8-methyl-2,3-dihydro-1H-pyrido[2,3-b][1,4]oxazin-7-yl)amino)-2-oxo-1,2-dihydropyridine-3-carboxamide] | ≤ 0.01 µM
Cc1c(Nc2cc[nH]c(=O)c2C(=O)Nc2ccc(N3CCN(C(=O)C(C)C)[C@@H](C)C3)cc2)cnc2c1NCCO2 [Example 343, (S)-N-(4-(4-isobutyryl-3-methylpiperazin-1-yl)phenyl)-4-((8-methyl-2,3-dihydro-1H-pyrido[2,3-b][1,4]oxazin-7-yl)amino)-2-oxo-1,2-dihydropyridine-3-carboxamide] | ≤ 0.01 µM
COC(C)(C)C(=O)N1CCN(c2ccc(NC(=O)c3c(Nc4cnc5c(c4C)NCCO5)cc[nH]c3=O)cc2)CC1 [Example 344, N-(4-(4-(2-methoxy-2-methylpropanoyl)piperazin-1-yl)phenyl)-4-((8-methyl-2,3-dihydro-1H-pyrido[2,3-b][1,4]oxazin-7-yl)amino)-2-oxo-1,2-dihydropyridine-3-carboxamide] | ≤ 0.01 µM

Further lines, results first:

IC50 | SMILES
≤ 0.01 µM | Cc1c(Nc2cc[nH]c(=O)c2C(=O)Nc2ccc(N3CCN(C(=O)N4CC(F)(F)C4)CC3)cc2)cnc2c1NCCO2 [Example 319, N-(4-(4-(3,3-difluoroazetidine-1-carbonyl)piperazin-1-yl)phenyl)-4-((8-methyl-2,3-dihydro-1H-pyrido[2,3-b][1,4]oxazin-7-yl)amino)-2-oxo-1,2-dihydropyridine-3-carboxamide]
≤ 0.01 µM | Cc1c(Nc2cc[nH]c(=O)c2C(=O)Nc2ccc(N3CCN(C(=O)N4CC5(CCC5)C4)CC3)cc2)cnc2c1NCCO2 [Example 320, N-(4-(4-(2-azaspiro[3.3]heptane-2-carbonyl)piperazin-1-yl)phenyl)-4-((8-methyl-2,3-dihydro-1H-pyrido[2,3-b][1,4]oxazin-7-yl)amino)-2-oxo-1,2-dihydropyridine-3-carboxamide]
≤ 0.01 µM | Cc1c(Nc2cc[nH]c(=O)c2C(=O)Nc2ccc(N3CCN(C(=O)N4CCCC4)CC3)cc2)cnc2c1NCCO2 [Example 324, 4-((8-methyl-2,3-dihydro-1H-pyrido[2,3-b][1,4]oxazin-7-yl)amino)-2-oxo-N-(4-(4-(pyrrolidine-1-carbonyl)piperazin-1-yl)phenyl)-1,2-dihydropyridine-3-carboxamide]
≤ 0.01 µM | Cc1c(Nc2cc[nH]c(=O)c2C(=O)Nc2ccc(N3CCN(C(=O)N4CCC4)CC3)cc2)cnc2c1NCCO2 [Example 325, N-(4-(4-(azetidine-1-carbonyl)piperazin-1-yl)phenyl)-4-((8-methyl-2,3-dihydro-1H-pyrido[2,3-b][1,4]oxazin-7-yl)amino)-2-oxo-1,2-dihydropyridine-3-carboxamide]
≤ 0.01 µM | Cc1c(Nc2cc[nH]c(=O)c2C(=O)Nc2ccc(N3CCC(N4CCN(C(C)C)CC4)CC3)c(F)c2)cnc2c1NCC(C)O2 (stereo not shown) [Example 326, 4-((3,8-dimethyl-2,3-dihydro-1H-pyrido[2,3-b][1,4]oxazin-7-yl)amino)-N-(3-fluoro-4-(4-(4-isopropylpiperazin-1-yl)piperidin-1-yl)phenyl)-2-oxo-1,2-dihydropyridine-3-carboxamide]
≤ 0.01 µM | Cc1c(Nc2cc[nH]c(=O)c2C(=O)Nc2ccc(N3CCN4CCOC[C@@H]4C3)cc2)cnc2c1NCCO2 [Example 327, (S)-N-(4-(hexahydropyrazino[2,1-c][1,4]oxazin-8(1H)-yl)phenyl)-4-((8-methyl-2,3-dihydro-1H-pyrido[2,3-b][1,4]oxazin-7-yl)amino)-2-oxo-1,2-dihydropyridine-3-carboxamide]
≤ 0.01 µM | Cc1c(Nc2cc[nH]c(=O)c2C(=O)Nc2ccc(N3CCN4CCC[C@H]4C3)cc2)cnc2c1NCCO2 [Example 328, (S)-N-(4-(hexahydropyrrolo[1,2-a]pyrazin-2(1H)-yl)phenyl)-4-((8-methyl-2,3-dihydro-1H-pyrido[2,3-b][1,4]oxazin-7-yl)amino)-2-oxo-1,2-dihydropyridine-3-carboxamide]
≤ 0.01 µM | Cc1c(Nc2cc[nH]c(=O)c2C(=O)Nc2ccc(N3CCN4CCC[C@@H]4C3)cc2)cnc2c1NCCO2 [Example 329, (R)-N-(4-(hexahydropyrrolo[1,2-a]pyrazin-2(1H)-yl)phenyl)-4-((8-methyl-2,3-dihydro-1H-pyrido[2,3-b][1,4]oxazin-7-yl)amino)-2-oxo-1,2-dihydropyridine-3-carboxamide]

— patent US20250282794A1 (CURADEV PHARMA LTD, priority 2022, published 2025)
